This is an account of results in ChEMBL document CHEMBL6087437 (J Med Chem, 2025).

One series deals with Marburgvirus. The experiment in a line: Antiviral activity against pseudotyped Marburg virus expressing glycoprotein infected in human A549 cells assessed as inhibition of viral entry incubated for 48 hrs by Neolite reporter gene assay. It is filed as functional, organism-based. Particulars: Orthomarburgvirus, A549, 48 h. (A reporter such as luciferase makes a cellular process visible.)

Series [1] concerns Ebolavirus. The experiment in a line: Antiviral activity against pseudotyped Ebola virus expressing glycoprotein infected in human A549 cells assessed as inhibition of viral entry incubated for 48 hrs by Neolite reporter gene assay. It is filed as functional, organism-based. Particulars: Orthoebolavirus, A549, 48 h.
Series [2] in a line: Selectivity index, ratio of CC50 for human A549 cells to EC50 for pseudotyped Ebola virus expressing glycoprotein infected in human A549 cells. To be noted: read-out: Ratio CC50/EC50. In kind it is toxicity, cell-based.
Series [3] deals with Ebolavirus. The experiment in a line: Binding affinity to Ebolavirus glycoprotein by SPR analysis. A general note: In SPR one partner is held on a chip, and binding of the other changes the refractive index at the surface.
For another series, the system named is Influenza A virus. The experiment in a line: Antiviral activity against pseudotyped Influenza A virus A/Goose/Qinghai/59/05(H5N1) infected in human A549 cells assessed as inhibition of viral entry incubated for 48 hrs by Neolite reporter gene assay. It is filed as functional, organism-based.
Series [4] has as its system Vesicular stomatitis virus. Nature of the series: Antiviral activity against pseudotyped vesicular stomatitis virus expressing glycoprotein infected in human A549 cells assessed as inhibition of viral entry incubated for 48 hrs by Neolite reporter gene assay. In kind it is functional, organism-based.
For another series, the system named is Sudan ebolavirus. Nature of the series: Antiviral activity against pseudotyped Sudan ebolavirus expressing glycoprotein infected in human A549 cells assessed as inhibition of viral entry incubated for 48 hrs by Neolite reporter gene assay. It is filed as functional, organism-based. To be noted: A549, 48 h.
A further series deals with HeLa. The experiment in a line: Cytotoxicity against human HeLa cells by Celltiter-Glo luminescent cell viability assay. In kind it is toxicity, cell-based. Background: ATP-based viability assays read luminescence as a measure of living cells.
In series [5] the test system is Ebolavirus. The experiment in a line: Antiviral activity against wildtype Ebola virus infected in human HeLa cells incubated for 40 hrs by Hoechst 33342 staining based Cytation-1 automated microscopic analysis. It is filed as functional, organism-based. To be noted: Orthoebolavirus.
The test system of a further series is Reston ebolavirus. The experiment in a line: Antiviral activity against pseudotyped Reston ebolavirus expressing glycoprotein infected in human A549 cells assessed as inhibition of viral entry incubated for 48 hrs by Neolite reporter gene assay. It is filed as functional, organism-based. Particulars: A549, 48 h.
A further series concerns Bundibugyo virus. Nature of the series: Antiviral activity against pseudotyped Bundibugyo ebolavirus expressing glycoprotein infected in human A549 cells assessed as inhibition of viral entry incubated for 48 hrs by Neolite reporter gene assay. In kind it is functional, organism-based. To be noted: A549, 48 h.
The test system of another series is Zaire ebolavirus. Nature of the series: Antiviral activity against pseudotyped Zaire ebolavirus expressing glycoprotein infected in human A549 cells assessed as inhibition of viral entry incubated for 48 hrs by Neolite reporter gene assay. In kind it is functional, organism-based. Particulars: A549, 48 h.
Another series relates to Tai Forest ebolavirus. The experiment in a line: Antiviral activity against pseudotyped Tai Forest ebolavirus expressing glycoprotein infected in human A549 cells assessed as inhibition of viral entry incubated for 48 hrs by Neolite reporter gene assay. It is filed as functional, organism-based. Particulars: A549, 48 h.
The nature of series [6]: Selectivity index, ratio of CC50 for human HeLa cells to EC50 for antiviral activity against wildtype Ebolavirus infected in human HeLa cells. Particulars: read-out: Ratio CC50/EC50. It is filed as toxicity, cell-based.

Active and inactive are the calls of the source. The rule behind the calls is not given here.

As for `O=C(Nc1ccc(C23CC4CC(CC(C4)C2)C3)cc1)c1ccc(CN2CCOCC2)cc1`, the concentration giving a half-maximal response (EC50) (as a rule, the midpoint of the concentration-response curve) with Marburgvirus came out at 8070 nM; in the series with Ebolavirus [1], 150 nM. The selectivity ratio in [2] was determined as 495.
On the same counts, the results for `O=C(Nc1ccc(C(F)(F)F)c(Cl)c1)c1ccc(CN2CCOCC2)cc1` are 3910 nM, 22100 nM and 1.
For `O=C(N[C@]12CC3CC(C[C@@H](C3)C1)C2)c1ccc(CN2CCOCC2)cc1` the same measures were 53800 nM, 6270 nM and 16.
On the same counts, the results for `CC1CCN(c2ccc(NC(=O)c3ccc(CN4CCOCC4)cc3)cc2F)CC1` are over 100000 nM, over 100000 nM and over 1.
As for `CC1CCN(c2ccc(N(C)C(=O)c3ccc(CN4CCOCC4)cc3)cc2C(F)(F)F)CC1`, the EC50 in the series on Marburgvirus worked out at 7560 nM; in the series with Ebolavirus [1], 1550 nM. Also, the selectivity ratio in series [2] was 33.
In the case of `O=C(Nc1ccc(N2CCCC2)c(C(F)(F)F)c1)c1ccc(CN2CCOCC2)cc1`, the results for the EC50 in the series with Marburgvirus and with Ebolavirus [1] were 14900 nM and 3300 nM, respectively. The selectivity ratio in series [2] stood at 18.
Turning to `CC(C)(C)C1CCN(c2ccc(NC(=O)c3ccc(CN4CCOCC4)cc3)cc2C(F)(F)F)CC1`, the EC50 in the series with Marburgvirus turned out to be 6150 nM; with Ebolavirus [1] it was 1450 nM. The selectivity ratio in series [2] amounted to 13.
For `O=C(Nc1ccc(N2CCC2)c(C(F)(F)F)c1)c1ccc(CN2CCOCC2)cc1` the same measures were 42400 nM, 14900 nM and 6.
On the same counts, the results for `CC1CCN(c2ccc(NC(=O)Nc3ccc(CN4CCOCC4)cc3)cc2C(F)(F)F)CC1` are 3490 nM, 2180 nM and 7.
For `O=C(Nc1ccc(C23CC4CC(CC(C4)C2)C3)cc1)c1ccc(CN2C[C@@H]3C[C@H]2CO3)nc1`, the EC50 came to 2800 nM in the series with Marburgvirus and 230 nM with Ebolavirus [1]. In addition, the outcome with Ebolavirus [3] was Active. The selectivity ratio in series [2] came to 258.
As to `CC1CCN(c2ccc(NC(=O)c3ccc(CN4CCOCC4)nc3)cc2C(F)(F)F)CC1`, the EC50 in the series on Marburgvirus was 1120 nM; in the series on Ebolavirus [1], 400 nM. The selectivity ratio in series [2] amounted to 138.
Consider `O=C(Nc1ccc(N2CCC3(CCC3)CC2)c(C(F)(F)F)c1)c1ccc(CN2C[C@H]3C[C@@H]2CO3)nc1`, for which the inhibition result (with Influenza A virus; in series [4]) was “Weak_effect” throughout. Moreover, the EC50 came out at 420 nM in the series with Sudan ebolavirus; 520 nM in the series on Ebolavirus [5]; 400 nM with Reston ebolavirus; 960 nM in the series on Bundibugyo virus; 880 nM in the series with Marburgvirus; 210 nM with Ebolavirus [1]. Further, the concentration for a half-maximal effect (EC50) worked out at 210 nM with Zaire ebolavirus and 170 nM with Tai Forest ebolavirus. The CC50 (in general, the concentration at which the toxic effect on the cells reaches its halfway point) in the series on HeLa came out at 13400 nM.
In the case of `CC1CCN(c2ccc(NC(=O)c3ccc(CN4C[C@@H]5C[C@H]4CO5)cc3)cc2C(F)(F)F)CC1`, the EC50 in the series with Marburgvirus came to 1340 nM; with Ebolavirus [1], 230 nM. In series [2], the selectivity ratio stood at 86.
As for `O=C(Nc1ccc(CN2CCOCC2)cc1)Nc1ccc(C23CC4CC(CC(C4)C2)C3)cc1`, half-maximal cytotoxicity with HeLa (CC50) was put at 16600 nM. The EC50 in the series with Ebolavirus [5] worked out at 700 nM; in the series on Marburgvirus it was 2580 nM; with Ebolavirus [1], 370 nM. Further, the selectivity ratio in series [6] is 24; in series [2], 32.
For the molecule `O=C(Nc1ccc(N2CCC3(CCC3)CC2)c(C(F)(F)F)c1)c1ccc(C(=O)N2C[C@H]3C[C@@H]2CO3)nc1`, the inhibition result (with Influenza A virus; in series [4]) was “Weak_effect” throughout. Further, the EC50 in the series with Sudan ebolavirus was 1610 nM; in the series on Ebolavirus [5], 890 nM; in the series on Reston ebolavirus, 260 nM; in the series with Bundibugyo virus, 1190 nM; in the series with Marburgvirus, 3890 nM; with Ebolavirus [1] it was 230 nM. Further, the half-maximal effective concentration (EC50) in the series with Zaire ebolavirus worked out at 230 nM; in the series with Tai Forest ebolavirus, 130 nM. In the series on HeLa, this molecule yielded a CC50 of 43400 nM. The results for the selectivity ratio in series [6] and in series [2] were 49 and 201, respectively.
Regarding `O=C(Nc1ccc(N2CC3(CCC3)C2)c(C(F)(F)F)c1)c1ccc(CN2CCOCC2)cc1`, the values for the EC50 with Marburgvirus and with Ebolavirus [1] were 3650 nM and 860 nM, respectively. Moreover, the selectivity ratio in series [2] was 116.
With `CC1(C)CCCN(c2ccc(NC(=O)c3ccc(CN4CCOCC4)cc3)cc2C(F)(F)F)C1`, the EC50 came out at 6580 nM in the series on Marburgvirus and 370 nM in the series with Ebolavirus [1]. The selectivity ratio in series [2] is 107.
On the same counts, the results for `CC1CCN(c2ccc(NC(=O)c3ccc(CN4CCOCC4)cc3)cn2)CC1` are 24400 nM, 12400 nM and 8.
`O=C(Nc1ccc(C23CC4CC(CC(C4)C2)C3)cc1)c1ccc(CN2C[C@@H]3C[C@H]2CO3)cc1` came in with a CC50 with HeLa of 10300 nM. For the same molecule, the EC50 in the series on Ebolavirus [5] was found to be 610 nM; in the series on Marburgvirus, 1330 nM; in the series on Ebolavirus [1] it was 200 nM. The selectivity ratio came to 17 in [6] and 77 in series [2]. Further, the result in the series with Ebolavirus [3] was Active.
For `CC1CCN(c2ccc(NC(=O)c3ccc(CN4CCOCC4)cc3)cc2Cl)CC1`, the 50% effective concentration (EC50) came out at 18500 nM in the series on Marburgvirus and 4320 nM with Ebolavirus [1]. In series [2], the selectivity ratio was 6.
Take `O=C(Nc1ccc(C23CC4CC(CC(O)(C4)C2)C3)cc1)c1ccc(CN2CCOCC2)cc1`: the values for the EC50 with Marburgvirus and in the series with Ebolavirus [1] were 25000 nM and 64600 nM, respectively.
For the molecule `O=C(Nc1csc(N2CCOCC2)n1)c1ccc(CN2CCOCC2)cc1`, the EC50 with Marburgvirus and with Ebolavirus [1] was over 100000 nM each time. In addition, in [2], the selectivity ratio is over 1.
Regarding `CC(C)(C)c1ccc(NC(=O)c2ccc(CN3CCOCC3)cc2)c(C(C)(C)C)c1`, the concentration for a half-maximal effect (EC50) with Marburgvirus was found to be 17100 nM; in the series with Ebolavirus [1], 3320 nM. Also, in [2], the selectivity ratio is 30.
For `O=C(Nc1ccc(CN2CCOCC2)cc1)c1ccc(Cl)c(C(F)(F)F)c1` the same measures were 5660 nM, 7760 nM and 9.
For `CC1CCN(c2ccc(N(CC3CC3)C(=O)c3ccc(CN4CCOCC4)cc3)cc2C(F)(F)F)CC1`, the EC50 amounted to 4610 nM in the series on Marburgvirus and 1820 nM in the series with Ebolavirus [1]. The selectivity ratio in [2] turned out to be 22.
For `O=C(c1ccc(CN2CCOCC2)cc1)N(c1ccccc1)c1ccccc1` the same measures were 71100 nM, 6720 nM and over 15.
For `CC1CCN(c2ccc(NC(=O)c3ccc(CN4C[C@@H]5C[C@H]4CO5)cn3)cc2C(F)(F)F)CC1` the same measures were 8230 nM, 290 nM and 345.
For `O=C(Nc1ccc(SC(F)(F)F)c(Cl)c1)c1ccc(CN2CCOCC2)cc1` the same measures were 8430 nM, 4950 nM and 5.
As to `CC1CCN(c2ccc(NC(=O)c3ccc(CN4C[C@@H]5C[C@H]4CO5)nc3)cc2C(F)(F)F)CC1`, the EC50 was 3430 nM in the series on Marburgvirus and 310 nM in the series with Ebolavirus [1]. Moreover, the outcome in the series on Ebolavirus [3] was Active. Further, the selectivity ratio in series [2] amounted to 149.
As to `CN1CCN(c2ccc(NC(=O)c3ccc(CN4CCOCC4)cc3)cc2C(F)(F)F)CC1`, the concentration giving a half-maximal response (EC50) with Marburgvirus worked out at 3930 nM; in the series with Ebolavirus [1], 970 nM. The selectivity ratio in series [2] was 37.
`CC1CC(C)CN(c2ccc(NC(=O)c3ccc(CN4CCOCC4)cc3)cc2C(F)(F)F)C1` (stereo not given): the half-maximal effective concentration (EC50) with Marburgvirus was 5340 nM; with Ebolavirus [1] it was 1070 nM. Besides, the selectivity ratio in series [2] turned out to be 52.
For `CC(C)C1CCN(c2ccc(NC(=O)c3ccc(CN4CCOCC4)cc3)cc2C(F)(F)F)CC1` the same measures were 5640 nM, 560 nM and 28.
On the same counts, the results for `O=C(Nc1ccc(N2CCOCC2)c(C(F)(F)F)c1)c1ccc(CN2CCOCC2)cc1` are 6970 nM, 490 nM and 69.
On the same counts, the results for `CC1CCCN(c2ccc(NC(=O)c3ccc(CN4CCOCC4)cc3)cc2C(F)(F)F)C1` (stereo not given) are 3060 nM, 300 nM and 142.
For the molecule `CC1(C)CCN(c2ccc(NC(=O)c3ccc(CN4CCOCC4)cc3)cc2C(F)(F)F)C1`, the EC50 is 1450 nM in the series on Marburgvirus and 190 nM with Ebolavirus [1]. Also, in [2], the selectivity ratio was found to be 321.
On the same counts, the results for `O=C(Nc1ccc(N2CCC3(CCC3)CC2)c(C(F)(F)F)c1)c1ccc(CN2CCOCC2)cc1` are 1110 nM, 90 nM and 209.
With `O=C(Nc1ccc(Cl)c(C(F)(F)F)c1)c1ccc(CN2CCOCC2)cc1`, the half-maximal effective concentration (EC50) came to 5600 nM in the series on Marburgvirus and 8090 nM with Ebolavirus [1]. For the same molecule, in series [2], the selectivity ratio was 6.
For `CC1CCN(c2ccc(C(=O)Nc3ccc(CN4CCOCC4)cc3)cc2C(F)(F)F)CC1` the same measures were 2900 nM, 1030 nM and 23.
